# Non-standard residues stand in square brackets, D forms with d. Residues, ends and D or L forms follow the SMILES beside them. *: point of attachment. Palmitoyl = CCCCCCCCCCCCCCCC(=O)*; Ahx = NCCCCCC(=O)O
# Assays:
# [1] = target: T1, Neuropeptide Y receptor type 2 (Homo sapiens, UniProt P49146); test: Displacement of [125I]-PYY from human NPYY2 receptor
# T1 sequence (P49146 whole entry): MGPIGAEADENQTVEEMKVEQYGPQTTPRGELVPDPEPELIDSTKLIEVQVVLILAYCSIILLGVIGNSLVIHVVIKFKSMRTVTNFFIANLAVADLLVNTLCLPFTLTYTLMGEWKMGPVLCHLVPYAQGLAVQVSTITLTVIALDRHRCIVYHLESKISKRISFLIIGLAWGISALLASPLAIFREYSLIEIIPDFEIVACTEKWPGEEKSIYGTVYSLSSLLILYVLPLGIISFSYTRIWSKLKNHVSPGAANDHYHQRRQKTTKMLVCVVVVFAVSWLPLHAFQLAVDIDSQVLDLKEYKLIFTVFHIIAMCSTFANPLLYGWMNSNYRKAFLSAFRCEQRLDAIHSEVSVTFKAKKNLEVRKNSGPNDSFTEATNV
# [2] = target: T2, Neuropeptide Y receptor type 2 (Homo sapiens) (UniProt P49146); test: Antagonist activity at NPYY2 receptor (unknown origin)
# T2 sequence (whole entry): T1 sequence (P49146 whole entry)
# [3] = target: T1, Neuropeptide Y receptor type 2; test: Displacement of [125I]-PYY from NPYY2 receptor (unknown origin)
# [4] = target: T3, Neuropeptide Y receptor type 5 (Homo sapiens, UniProt Q15761); test: Binding affinity to NPYY5 receptor (unknown origin)
# T3 sequence (Q15761 whole entry): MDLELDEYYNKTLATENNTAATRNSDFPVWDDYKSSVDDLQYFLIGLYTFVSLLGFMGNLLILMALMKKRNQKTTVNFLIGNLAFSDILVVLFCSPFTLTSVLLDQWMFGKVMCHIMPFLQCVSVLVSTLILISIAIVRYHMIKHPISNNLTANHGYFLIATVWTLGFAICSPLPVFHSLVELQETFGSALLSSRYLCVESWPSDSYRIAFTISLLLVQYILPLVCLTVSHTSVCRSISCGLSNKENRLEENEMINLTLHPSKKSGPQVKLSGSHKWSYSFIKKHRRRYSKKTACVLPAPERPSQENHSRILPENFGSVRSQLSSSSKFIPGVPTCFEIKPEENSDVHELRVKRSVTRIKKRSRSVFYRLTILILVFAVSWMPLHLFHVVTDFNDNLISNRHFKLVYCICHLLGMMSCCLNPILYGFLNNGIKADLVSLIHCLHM
# Mu-type opioid receptor = Mu-type opioid receptor (Homo sapiens, UniProt P35372); test: Binding affinity to mu opioid receptor (unknown origin)
# Mu-type opioid receptor, sequence (P35372 whole entry): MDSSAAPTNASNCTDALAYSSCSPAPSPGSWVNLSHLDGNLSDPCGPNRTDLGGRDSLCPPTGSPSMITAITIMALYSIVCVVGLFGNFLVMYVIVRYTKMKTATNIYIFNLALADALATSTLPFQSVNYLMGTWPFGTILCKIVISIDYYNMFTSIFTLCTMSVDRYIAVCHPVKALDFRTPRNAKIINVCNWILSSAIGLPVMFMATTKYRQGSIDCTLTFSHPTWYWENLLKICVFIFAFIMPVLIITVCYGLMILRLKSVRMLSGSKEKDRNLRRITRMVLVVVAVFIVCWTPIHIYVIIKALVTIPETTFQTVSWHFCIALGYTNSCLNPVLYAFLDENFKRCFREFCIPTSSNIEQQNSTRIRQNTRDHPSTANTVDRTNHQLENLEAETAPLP
# [5] = target: Kappa-type opioid receptor (Homo sapiens, UniProt P41145); test: Binding affinity to kappa opioid receptor (unknown origin)
# Kappa-type opioid receptor, sequence (P41145 whole entry): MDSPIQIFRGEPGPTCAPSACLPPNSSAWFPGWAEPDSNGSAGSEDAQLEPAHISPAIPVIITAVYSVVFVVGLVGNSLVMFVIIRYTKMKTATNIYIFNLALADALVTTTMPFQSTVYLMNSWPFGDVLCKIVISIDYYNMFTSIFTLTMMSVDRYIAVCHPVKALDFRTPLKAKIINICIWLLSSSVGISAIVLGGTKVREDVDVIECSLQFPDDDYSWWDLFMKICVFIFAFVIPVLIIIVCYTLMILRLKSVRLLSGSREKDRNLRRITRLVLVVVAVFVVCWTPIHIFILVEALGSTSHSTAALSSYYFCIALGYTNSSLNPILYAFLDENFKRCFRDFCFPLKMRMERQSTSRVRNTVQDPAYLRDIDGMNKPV
# [6] = target: T4, Alpha-1A adrenergic receptor (Homo sapiens, UniProt P35348); test: Binding affinity to adrenergic alpha1A receptor (unknown origin)
# T4 sequence (P35348 whole entry): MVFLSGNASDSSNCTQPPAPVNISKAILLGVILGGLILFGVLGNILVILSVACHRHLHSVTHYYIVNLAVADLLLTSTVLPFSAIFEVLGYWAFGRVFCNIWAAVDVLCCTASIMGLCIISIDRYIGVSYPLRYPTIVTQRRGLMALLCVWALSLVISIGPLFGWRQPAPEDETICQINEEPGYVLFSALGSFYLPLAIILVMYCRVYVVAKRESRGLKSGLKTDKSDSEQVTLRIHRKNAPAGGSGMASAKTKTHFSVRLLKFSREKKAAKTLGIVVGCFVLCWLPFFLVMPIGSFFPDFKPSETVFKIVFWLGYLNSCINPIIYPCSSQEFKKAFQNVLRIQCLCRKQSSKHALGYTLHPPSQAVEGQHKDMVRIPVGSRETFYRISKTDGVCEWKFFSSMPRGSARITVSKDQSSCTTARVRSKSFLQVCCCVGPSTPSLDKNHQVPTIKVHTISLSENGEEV
# [7] = target: T1, Neuropeptide Y receptor type 2; test: Binding affinity to NPYY2 receptor (unknown origin) preincubated for 20 mins
# Homo sapiens [8] = species: Homo sapiens; test: Selectivity ratio of NPYY1 receptor (unknown origin) to NPYY2 receptor (unknown origin)
# Homo sapiens [9] = species: Homo sapiens; test: Selectivity ratio of NPYY4 receptor (unknown origin) to NPYY2 receptor (unknown origin)
# [10] = Oral bioavailability in rat at 10 mg/kg; assay type: ADME, organism-based; details: in vivo
# [11] = Cmax in rat at 10 mg/kg, sc; assay type: ADME, organism-based; design: dose 10 mg/kg, route subcutaneous; details: in vivo
# Homo sapiens [12] = species: Homo sapiens; test: Selectivity ratio of NPYY5 receptor (unknown origin) to NPYY2 receptor (unknown origin)
# [13] = Bioavailability in rat at 10 mg/kg, sc; assay type: ADME, organism-based; details: in vivo
# [14] = Half life in rat at 10 mg/kg, sc; assay type: ADME, organism-based; design: dose 10 mg/kg, route subcutaneous; details: in vivo
# Mus musculus = test: Anticonvulsant activity in ip dosed mouse assessed as protection against 6 Hz psychomotor seizure; assay type: functional
# [15] = target: T1, Neuropeptide Y receptor type 2; test: Binding affinity to NPYY2 receptor (unknown origin)
compound,measurement,setting,value
CCN(CC)C(=O)C(c1ccccc1)N1CCN(c2ccc(-c3cc(=O)n(C(C)C)[nH]3)cc2F)CC1 (stereo not given),IC50,[1],340 nM
CCN(CC)C(=O)C(c1ccccc1)C1CCN(c2ccc(NC(=O)C3CCOC3)cc2F)CC1 (stereo not given),IC50,[1],25 nM
CCc1noc(C(c2ccccc2)N2CCN(c3ccc(NC(=O)C(CC)CC)cc3F)CC2)n1 (stereo not given),pKb,[2],7.45
CCC(CC)C(=O)Nc1ccc(N2CCN(C(c3ccccc3)c3ncno3)CC2)c(F)c1 (stereo not given),IC50,[1],240 nM
CCC(CC)C(=O)Nc1ccc(N2CCN(C(C(=O)N(CC)CC)c3ccc(O)cc3)CC2)c(F)c1 (stereo not given),IC50,[1],100 nM
CC(=O)N1CCc2ccc(N(CC#Cc3ccccc3)C3CCN(Cc4ccccc4)CC3)cc21,IC50,[1],9200 nM
CN(C)CCCN(C(=O)[C@H]1C[C@@H]1c1ccccc1)c1ccccc1SCc1ccccc1 (relative stereo),IC50,[3],3700 nM
Ac-LRHYLNLLTRQRY-NH2,Ki,[4],> 1000 nM
CCC(CC)C(=O)Nc1ccc(N2CCN(C(c3ccccc3)C3CCOC3)CC2)c(F)c1 (stereo not given),pKb,[2],7.2
same,IC50,[1],34 nM
CCN(CC)C(=O)C(c1ccccc1)N1CCN(c2ccc(-c3cccnc3)cc2F)CC1 (stereo not given),IC50,[1],740 nM
CCN(CC)C(=O)C(c1ccccc1)N1CCN(c2ccc(NC(=O)c3c(C)cnn3CC)cc2F)CC1 (stereo not given),IC50,[1],35 nM
"N=C(N)NCCCC(NC(=O)CC1(CC(=O)N2CCN(C3c4ccccc4NC(=O)c4ccccc43)CC2)CCCC1)C(=O)NCCn1c(=O)n(-c2ccccc2)n(-c2ccccc2)c1=O (single isomer, unassigned)",Ki,Mu-type opioid receptor,323 nM
same,Ki,[5],948 nM
same,Ki,[6],360 nM
CC(=O)N1CCc2ccc(N(C/C=C\c3ccccc3)C3CCN(Cc4ccccc4)CC3)cc21,IC50,[1],22000 nM
CCC(=O)NCCNC(=O)CCCC(=O)NC(=N)NCCC[C@H](NC(=O)CC1(CC(=O)N2CCN(C3c4ccccc4NC(=O)c4ccccc43)CC2)CCCC1)C(=O)NCCn1c(=O)n(-c2ccccc2)n(-c2ccccc2)c1=O (stereo not given in full),Ki,[7],9.9 nM
CCc1nc(C(c2ccccc2)N2CCN(c3ccc(NC(=O)C(CC)CC)cc3F)CC2)no1 (stereo not given),IC50,[1],150 nM
CCC(CC)C(=O)Nc1ccc(N2CCN(C(c3cccc(F)c3)c3ncco3)CC2)c(C#N)c1 (stereo not given),pKb,[2],7.9
CCN(CC)C(=O)C(c1ccccc1)N1CCN(c2ccc(NC(=O)c3ccccc3-c3cccnc3)cc2F)CC1 (stereo not given),pKb,[2],8.04
same,Selectivity ratio,Homo sapiens [8],> 100
same,Selectivity ratio,Homo sapiens [9],> 100
same,bioavailability,[10],6%
same,Cmax,[11],4.35 µM
same,Selectivity ratio,Homo sapiens [12],> 100
same,bioavailability,[13],100%
same,half-life,[14],49.8 min
CCN(CC)C(=O)C(c1ccccc1)N1CCN(c2ccc(NC(=O)c3c(C)cnn3C(C)(C)C)cc2F)CC1 (stereo not given),IC50,[1],300 nM
CCC(CC)C(=O)Nc1ccc(N2CCN(C(c3ccccc3)c3nc(C(C)C)no3)CC2)c(F)c1 (stereo not given),IC50,[1],170 nM
CCC(CC)C(=O)Nc1ccc(N2CCN(C(c3ccccc3)c3nc(-c4ccccc4)no3)CC2)c(F)c1 (stereo not given),IC50,[1],720 nM
CN(C)CCCN(C(=O)c1cc2ccccc2s1)c1ccccc1Cc1ccccc1,IC50,[3],450 nM
CCC(CC)C(=O)Nc1ccc(N2CCN(C(c3ccccc3)c3cc(C)no3)CC2)c(F)c1 (stereo not given),pKb,[2],7.5
same,IC50,[1],38 nM
CCC(CC)C(=O)Nc1ccc(N2CCN(C(C(=O)N(CC)CC)c3ccc(Cl)cc3)CC2)c(F)c1 (stereo not given),IC50,[1],100 nM
CCC(CC)C(=O)Nc1ccc(N2CCN(C(c3ccccc3)c3ncccn3)CC2)c(F)c1 (stereo not given),IC50,[1],33 nM
CCCCCCCCCCCCCCCC(=O)NCCCC[C@H](NC(=O)[C@H](CCCCN)NC(=O)[C@H](CCCCN)NC(=O)[C@H](Cc1ccc(O)cc1)NC(C)=O)C(=O)NCCCCCC(=O)N[C@@H](C)C(=O)N[C@@H](CCCNC(=N)N)C(=O)N[C@@H](Cc1cnc[nH]1)C(=O)N[C@@H](Cc1ccc(O)cc1)C(=O)N[C@H](C(=O)N[C@@H](CC(N)=O)C(=O)N[C@@H](CC(C)C)C(=O)N[C@H](C(=O)N[C@H](C(=O)N[C@@H](CCCNC(=N)N)C(=O)N[C@@H](CCC(N)=O)C(=O)N[C@@H](CCCNC(=N)N)C(=O)N[C@@H](Cc1ccc(O)cc1)C(N)=O)[C@@H](C)O)[C@@H](C)CC)[C@@H](C)CC (Ac-YKKK(Palmitoyl)[Ahx]ARHYINLITRQRY-NH2),ED50,Mus musculus,1.1 mg/kg
CCC(CC)C(=O)Nc1ccc(N2CCN(C(c3ccccc3)c3nnc(C(C)C)o3)CC2)c(F)c1 (stereo not given),IC50,[1],290 nM
CCC(CC)C(=O)Nc1ccc(N2CCN(C(c3ccccc3)c3nc(C)no3)CC2)c(F)c1 (stereo not given),pKb,[2],7.4
CCN(CC)C(=O)C(c1ccccc1)N1CCN(c2ccc(-c3c(C)noc3C)cc2F)CC1 (stereo not given),IC50,[1],10000 nM
CCCCCCCCCCCCCCCC(=O)NCCCC[C@H](NC(=O)[C@H](CCCCN)NC(=O)[C@H](CCCCN)NC(=O)[C@H](Cc1ccc(O)cc1)NC(C)=O)C(=O)NCCCCCC(=O)N[C@@H](C)C(=O)N[C@@H](CCCN=C(N)N)C(=O)N[C@@H](Cc1cnc[nH]1)C(=O)N[C@@H](Cc1ccc(O)cc1)C(=O)N[C@H](C(=O)N[C@@H](CC(N)=O)C(=O)N[C@@H](CC(C)C)C(=O)N[C@H](C(=O)N[C@H](C(=O)N[C@@H](CCCN=C(N)N)C(=O)N[C@@H](CCC(N)=O)C(=O)N[C@@H](CCCN=C(N)N)C(=O)N[C@@H](Cc1ccc(O)cc1)C(N)=O)[C@@H](C)O)[C@@H](C)CC)[C@@H](C)CC (Ac-YKKK(Palmitoyl)[Ahx]ARHYINLITRQRY-NH2),Ki,[15],26.1 nM

# From ChEMBL document CHEMBL3102719, “Ligands of the neuropeptide Y Y2 receptor” (Bioorg Med Chem Lett, 2014)
